Assay results taken from PubChem BioAssay AID330 (DTP/NCI, 2004).
Several values for one entry are separate records, joined by “and”; a condition that tells them apart may be missing. Equal entries are not always repeated. Inconclusive results and toxic doses are left out. Rule for the calls: active = survival T/C of 150% or more; inactive = T/C below 125% in these data.

System: P388 leukemia ip, CD2F1 mice, survival T/C
Assay: NCI In Vivo Anticancer Drug Screen. Data for tumor model P388 Leukemia (intraperitoneal) in CD2F1 (CDF1) mice
Conditions: endpoint: median survival time, higher = longer survival
How it was run: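 Mice carrying the transplanted tumor received test compound or vehicle. Survival was recorded in each group, and the value is the treated-group measurement divided by that of the vehicle-treated control group.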

[1] = dose: 12.5 mg/kg/injection, schedule: Q01DX005 (ip), vehicle: saline with Tween-80
[2] = dose: 25.0 mg/kg/injection, schedule: Q01DX005 (ip), vehicle: saline with Tween-80
[3] = dose: 50.0 mg/kg/injection, schedule: Q01DX005 (ip), vehicle: saline with Tween-80
[4] = dose: 100.0 mg/kg/injection, schedule: Q01DX005 (ip), vehicle: saline with Tween-80
[5] = dose: 120.0 mg/kg/injection, schedule: Q01DX005 (ip), vehicle: saline with Tween-80
[6] = dose: 200.0 mg/kg/injection, schedule: Q01DX005 (ip), vehicle: saline with Tween-80
[7] = dose: 240.0 mg/kg/injection, schedule: Q01DX005 (ip), vehicle: saline with Tween-80
[8] = dose: 50.0 mg/kg/injection, schedule: Q01DX005 (ip), vehicle: saline
[9] = dose: 100.0 mg/kg/injection, schedule: Q01DX005 (ip), vehicle: saline
[10] = dose: 200.0 mg/kg/injection, schedule: Q01DX005 (ip), vehicle: saline
[11] = dose: 25.0 mg/kg/injection, schedule: Q01DX009 (ip), vehicle: saline with Tween-80
[12] = dose: 50.0 mg/kg/injection, schedule: Q01DX009 (ip), vehicle: saline with Tween-80
[13] = dose: 100.0 mg/kg/injection, schedule: Q01DX009 (ip), vehicle: saline with Tween-80
[14] = dose: 16.0 mg/kg/injection, schedule: Q01DX009 (ip), vehicle: Klucel (hydroxypropylcellulose) (HPC)
[15] = dose: 32.0 mg/kg/injection, schedule: Q01DX009 (ip), vehicle: Klucel (hydroxypropylcellulose) (HPC)
[16] = dose: 12.5 mg/kg/injection, schedule: Q01DX009 (ip), vehicle: saline
[17] = dose: 25.0 mg/kg/injection, schedule: Q01DX009 (ip), vehicle: saline
[18] = dose: 50.0 mg/kg/injection, schedule: Q01DX009 (ip), vehicle: saline
[19] = dose: 100.0 mg/kg/injection, schedule: Q01DX009 (ip), vehicle: saline
[20] = dose: 200.0 mg/kg/injection, schedule: Q01DX009 (ip), vehicle: saline with Tween-80
[21] = dose: 200.0 mg/kg/injection, schedule: Q01DX009 (ip), vehicle: saline
[22] = dose: 50.0 mg/kg/injection, schedule: Q01DX009 (ip), vehicle: Klucel (hydroxypropylcellulose) (HPC)
[23] = dose: 100.0 mg/kg/injection, schedule: Q01DX009 (ip), vehicle: Klucel (hydroxypropylcellulose) (HPC)
[24] = dose: 50.0 mg/kg/injection, schedule: Q01DX005 (ip), vehicle: Klucel (hydroxypropylcellulose) (HPC)
[25] = dose: 100.0 mg/kg/injection, schedule: Q01DX005 (ip), vehicle: Klucel (hydroxypropylcellulose) (HPC)
[26] = dose: 200.0 mg/kg/injection, schedule: Q01DX009 (ip), vehicle: Klucel (hydroxypropylcellulose) (HPC)

Measured: T/C

CSc1ncc2c(=O)c3c(ccc4ccccc43)oc2n1
inactive: dose: 3.12 mg/kg/injection, schedule: Q01DX009 (ip), vehicle: saline with Tween-80 93 % of control | dose: 6.25 mg/kg/injection, schedule: Q01DX009 (ip), vehicle: saline with Tween-80 102 % of control | dose: 12.5 mg/kg/injection, schedule: Q01DX009 (ip), vehicle: saline with Tween-80 96 % of control

COC(=O)C1C(=O)C(NC(=O)CCCCl)C(c2ccccc2)C(C(=O)OC)C1=O (stereo not drawn)
inactive: [1] 103 % of control | [2] 106 % of control | [3] 99 % of control | dose: 60.0 mg/kg/injection, schedule: Q01DX005 (ip), vehicle: saline with Tween-80 101 % of control | [4] 102 % of control | [5] 94 % of control | [6] 103 % of control | [7] 97 % of control

CCCCCC[CH2][Sn]([Cl])([CH2]C)[O][Sn]([Cl])([CH2]C)[CH2]CCCCCC (stereo not drawn)
inactive: dose: 12.5 mg/kg/injection, schedule: Q01DX005 (ip), vehicle: saline 86 % of control | dose: 25.0 mg/kg/injection, schedule: Q01DX005 (ip), vehicle: saline 86 % of control | [8] 98 % of control and 90 % of control | [9] 110 % of control | [10] 98 % of control

COC12c3c(C)cc(O)c4c(=O)occ(c34)C(=O)C1C13COC(=O)c4c(O)cc(C)c(c41)C(=O)C2C3OC(C)=O (stereo not drawn)
inactive: [11] 107 % of control and 119 % of control | [12] 111 % of control and 122 % of control | [13] 103 % of control and 120 % of control and 123 % of control

COc1ccc(C2OCC3C2CO[C@H]3c2ccc(OC)c(OC)c2)cc1OC (mixture of isomers)
inactive: dose: 8.0 mg/kg/injection, schedule: Q01DX009 (ip), vehicle: Klucel (hydroxypropylcellulose) (HPC) 90 % of control | [14] 97 % of control | [15] 91 % of control | dose: 64.0 mg/kg/injection, schedule: Q01DX009 (ip), vehicle: Klucel (hydroxypropylcellulose) (HPC) 89 % of control

Nc1cc(Cl)c(Cl)c(Cl)c1N
inactive: [16] 106 % of control | [17] 104 % of control | [12] 105 % of control | [18] 103 % of control | [13] 105 % of control | [19] 105 % of control and 93 % of control | [20] 102 % of control | [21] 123 % of control and 93 % of control and 94 % of control

CSc1nc2c(nc(N)n2C2OC(COC(C)=O)C(OC(C)=O)C(OC(C)=O)C2OC(C)=O)c(=O)n1C (stereo not drawn)
inactive: [5] 92 % of control | [7] 96 % of control

N[C@H](CCOc1ccc(/C(=N/O)C(=O)N[C@H]2CN([C@@H](C(=O)O)c3ccc(O)cc3)C2=O)cc1)C(=O)O
inactive: dose: 50.0 mg/kg/injection, schedule: Q01DX005 (ip), vehicle: water 101 % of control | dose: 100.0 mg/kg/injection, schedule: Q01DX005 (ip), vehicle: water 97 % of control | dose: 200.0 mg/kg/injection, schedule: Q01DX005 (ip), vehicle: water 105 % of control

O=C1C(c2ccccc2)=S=C2Sc3ccccc3N12
inactive: [12] 105 % of control | [13] 102 % of control | [20] 95 % of control

COc1ccc(CN2CCCN(Cc3ccc(OC)cc3)P2(=O)Nc2ccc(OC)cc2)cc1
inactive: [3] 97 % of control | [4] 100 % of control | [6] 100 % of control

COc1ccc(CC(NC(=O)NSc2ccccc2)C(=O)NC2C(CO)OC(n3cnc4c(N(C)C)ncnc43)C2O)cc1 (stereo not drawn)
inactive: [1] 90 % of control | [2] 93 % of control | [3] 88 % of control and 91 % of control

CCCCCCCCCCCCCCCCCCNCCC#N
inactive: dose: 12.5 mg/kg/injection, schedule: Q01DX009 (ip), vehicle: Klucel (hydroxypropylcellulose) (HPC) 101 % of control | dose: 25.0 mg/kg/injection, schedule: Q01DX009 (ip), vehicle: Klucel (hydroxypropylcellulose) (HPC) 98 % of control and 100 % of control | [22] 98 % of control and 89 % of control (2×) | [23] 99 % of control and 87 % of control

O=c1[nH]nc(SCc2ccc(Cl)cc2Cl)c(=O)[nH]1
inactive: dose: 6.25 mg/kg/injection, schedule: Q01DX005 (ip), vehicle: Klucel (hydroxypropylcellulose) (HPC) 100 % of control | dose: 12.5 mg/kg/injection, schedule: Q01DX005 (ip), vehicle: Klucel (hydroxypropylcellulose) (HPC) 94 % of control | dose: 25.0 mg/kg/injection, schedule: Q01DX005 (ip), vehicle: Klucel (hydroxypropylcellulose) (HPC) 86 % of control

Cc1ccc(S(=O)(=O)NC(=O)Nc2ccccc2SC2CCc3ccccc32)cc1 (stereo not drawn)
inactive: [24] 105 % of control | [25] 108 % of control | dose: 200.0 mg/kg/injection, schedule: Q01DX005 (ip), vehicle: Klucel (hydroxypropylcellulose) (HPC) 102 % of control

COc1ccc(NS(=O)(=O)c2ccc(C)cc2)c([N+](=O)[O-])c1
inactive: [22] 116 % of control | [23] 115 % of control | [26] 115 % of control

c1ccc(C(Sc2ncnc3nc[nH]c23)c2ccccc2)cc1
inactive: [18] 102 % of control | [19] 102 % of control | [21] 111 % of control

O=C1CN(N2CCOCC2)CC(=O)N2CCCCN12
inactive: [8] 100 % of control | [9] 109 % of control | [10] 109 % of control

c1ccc2c[n+](CC[n+]3ccc4ccccc4c3)ccc2c1
inactive: [11] 100 % of control | [12] 118 % of control

Cc1ccc(-[n+]2c3cc(N)c(C)cc3nc3cc(C)c(Nc4ccccc4)cc32)cc1
inactive: dose: 25.0 mg/kg/injection, schedule: Q01DX005 (ip), vehicle: saline + Tween-80 + alcohol 109 % of control | [2] 101 % of control | dose: 50.0 mg/kg/injection, schedule: Q01DX005 (ip), vehicle: saline + Tween-80 + alcohol 116 % of control | [3] 119 % of control and 122 % of control | [4] 119 % of control and 122 % of control | [6] 119 % of control

Cc1[nH]oc(=O)c1C(=O)O
inactive: [18] 100 % of control | [19] 99 % of control | [21] 89 % of control

N#CC1CNC(N)NC1N (stereo not drawn)
inactive: dose: 60.0 mg/kg/injection, schedule: Q01DX005 (ip), vehicle: Klucel (hydroxypropylcellulose) (HPC) 99 % of control | dose: 120.0 mg/kg/injection, schedule: Q01DX005 (ip), vehicle: Klucel (hydroxypropylcellulose) (HPC) 91 % of control | dose: 240.0 mg/kg/injection, schedule: Q01DX005 (ip), vehicle: Klucel (hydroxypropylcellulose) (HPC) 90 % of control

CC(CN1CCOCC1)(CN1CCOCC1)[N+](=O)[O-]
inactive: [16] 111 % of control | [17] 110 % of control | [18] 107 % of control and 111 % of control | [19] 115 % of control

COC1=C(OC)C(=O)C(SCCCCCCC2CCCCC2)=CC1=O
inactive: [14] 96 % of control | [15] 92 % of control

CC(=O)O[C@H]1CC[C@]2(C)C34OC3C[C@]3(C)[C@@H](C(C)=O)CC[C@H]3[C@]43C=C[C@@]2(C1)C1C(=O)OC(=O)C13 (stereo partly drawn)
inactive: [24] 112 % of control | [25] 106 % of control

COc1ccc2c(c1)C(=O)C1(CC2)OC1c1ccncc1 (stereo not drawn)
inactive: [23] 97 % of control | [26] 100 % of control
